Here are results for 16 molecules from ChEMBL document CHEMBL1132133, “Synthesis and biological activity of a novel series of indole-derived PPARgamma agonists” (Bioorg Med Chem Lett, 1999).

One may read the pEC50 as the EC50 on a negative log10 scale, so that one unit is a factor of ten. High values mean a low EC50, low ones a high EC50. Usually pKi stands for the Ki on a negative log10 scale, so that one unit is a factor of ten. Lower therefore signals a high Ki. A word on the bioavailability: it is the share of a dose that reaches the circulation, judged against a reference dose that is usually intravenous. The low end stands for poor availability, the high end for good availability. One may read the half-life as the time in which the quantity being followed falls by half. As a reminder, the pIC50 is −log10 of the IC50, conventionally taken in molar units. A high value points to a small IC50.

pEC50, pIC50, pKi: −log10 of the molar value. Activity calls are given as the source filed them. The rule behind the calls is not given here.

Data set [1] deals with T1, Peroxisome proliferator-activated receptor alpha (Homo sapiens, UniProt Q07869).
T1 sequence (Q07869 whole entry): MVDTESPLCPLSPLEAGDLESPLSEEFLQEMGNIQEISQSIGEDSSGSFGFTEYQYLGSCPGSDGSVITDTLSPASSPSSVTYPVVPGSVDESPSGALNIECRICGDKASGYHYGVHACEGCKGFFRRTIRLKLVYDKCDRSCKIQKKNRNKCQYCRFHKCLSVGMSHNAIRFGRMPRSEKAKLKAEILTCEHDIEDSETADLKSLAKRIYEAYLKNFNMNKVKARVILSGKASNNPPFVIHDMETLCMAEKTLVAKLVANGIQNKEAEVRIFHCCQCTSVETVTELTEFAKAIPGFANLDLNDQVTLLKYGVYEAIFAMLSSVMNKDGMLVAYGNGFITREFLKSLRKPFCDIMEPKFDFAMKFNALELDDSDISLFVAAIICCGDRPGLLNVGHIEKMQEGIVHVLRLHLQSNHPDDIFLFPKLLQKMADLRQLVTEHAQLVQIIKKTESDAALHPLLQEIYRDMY
The experiment in a line: Binding affinity against Peroxisome Proliferator activated receptor alpha (PPAR alpha); Not active.

The target of data set [2] is T2, Peroxisome proliferator-activated receptor gamma (Homo sapiens, UniProt P37231).
T2 sequence (P37231 whole entry): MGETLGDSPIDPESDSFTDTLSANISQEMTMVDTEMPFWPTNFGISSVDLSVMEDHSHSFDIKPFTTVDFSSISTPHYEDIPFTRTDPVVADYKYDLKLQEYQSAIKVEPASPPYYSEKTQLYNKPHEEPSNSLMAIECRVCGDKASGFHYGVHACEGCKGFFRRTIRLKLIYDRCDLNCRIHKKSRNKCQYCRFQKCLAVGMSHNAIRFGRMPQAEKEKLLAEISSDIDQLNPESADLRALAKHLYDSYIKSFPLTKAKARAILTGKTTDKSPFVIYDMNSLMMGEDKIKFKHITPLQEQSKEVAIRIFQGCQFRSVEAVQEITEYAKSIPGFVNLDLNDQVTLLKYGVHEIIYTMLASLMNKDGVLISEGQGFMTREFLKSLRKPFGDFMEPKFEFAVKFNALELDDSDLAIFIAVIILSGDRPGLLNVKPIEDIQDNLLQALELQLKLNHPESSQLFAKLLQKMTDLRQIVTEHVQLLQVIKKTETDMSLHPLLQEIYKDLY

The target in data set [3] is T3, Peroxisome proliferator-activated receptor delta (Homo sapiens, UniProt Q03181).
T3 sequence (Q03181 whole entry): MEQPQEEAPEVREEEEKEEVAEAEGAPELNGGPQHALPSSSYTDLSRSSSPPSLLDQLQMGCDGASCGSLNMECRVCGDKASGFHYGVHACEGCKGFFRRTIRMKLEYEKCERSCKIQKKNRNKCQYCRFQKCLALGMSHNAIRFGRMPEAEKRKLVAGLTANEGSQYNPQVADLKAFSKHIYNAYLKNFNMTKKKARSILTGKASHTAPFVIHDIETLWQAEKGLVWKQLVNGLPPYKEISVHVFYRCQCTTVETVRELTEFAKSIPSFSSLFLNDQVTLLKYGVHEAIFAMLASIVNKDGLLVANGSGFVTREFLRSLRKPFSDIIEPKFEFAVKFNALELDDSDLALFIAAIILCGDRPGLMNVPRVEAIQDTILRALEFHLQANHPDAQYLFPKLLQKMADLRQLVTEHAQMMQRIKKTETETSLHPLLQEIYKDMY

For data set [4], the target named is T2, Peroxisome proliferator-activated receptor gamma. This is another data set of the same source.
Data set [5] is described as follows: Pharmacokinetic property (oral bioavailability) in rat (dose given as a solution). It counts as ADME, organism-based. The following applies: in vivo.
A short description of data set [6]: Pharmacokinetic property (oral bioavailability) in rat (dose given as a suspension). It counts as ADME, organism-based. The following applies: in vivo.
Data set [7] can be described thus: Pharmacokinetic property (total body clearance) in rat. The data set is classed as ADME, organism-based. The following applies: in vivo, read-out: CLtotal.
Data set [8] is described as follows: Pharmacokinetic property (half life) in rat. The data set is classed as ADME, organism-based. The following applies: in vivo.
For data set [9], the target named is T2, Peroxisome proliferator-activated receptor gamma. Nature of the data set: Inhibitory concentration of the PPAR gamma).
Data set [10] has the same target. Nature of the data set: Binding affinity against human Peroxisome proliferator activated receptor gamma (PPAR gamma).
Data set [11] addresses T4, Peroxisome proliferator-activated receptor gamma (Homo sapiens) (UniProt P37231).
T4 sequence (whole entry): T2 sequence (P37231 whole entry)
Nature of the data set: Transcriptional activation of peroxisome proliferator activated receptor gamma activity; Inactive at 10e-4 M. The data set is classed as functional.

Data set [12] addresses T4, Peroxisome proliferator-activated receptor gamma (Homo sapiens). The experiment in a line: Binding affinity against Peroxisome proliferator activated receptor gamma (PPAR gamma); Inactive at 10e-4 M.

For `O=C(O)Cc1ccc2[nH]c(-c3ccccc3)c(CCc3ccccc3)c2c1`, the Ki result in data set [1] and in data set [3] was “Not Active” in each case. Besides, the pEC50 in data set [2] is 6.51.

In the case of `O=C(O)CCc1ccc2[nH]c(-c3ccccc3)c(CCc3ccccc3)c2c1`, the Ki entry in [1] and in [3] was “Not Active” throughout. Further, the pEC50 in data set [2] is 5.52.

Consider `O=C(O)Cc1ccc2[nH]c(-c3ccc(F)cc3)c(CCc3ccc(F)cc3)c2c1`, for which the Ki entry in data set [1] and in [3] was “Not Active” throughout. The molecule further had a pKi in [4] of 6.31. Besides, the pEC50 in data set [2] was 6.47.

Consider `O=C(O)Cc1ccc2[nH]cc(CCc3ccccc3)c2c1`, for which the Ki result in data set [1] and in data set [3] was “Not Active” in each case. In addition, in [4], the pKi is below 5.00. The molecule also gave a pEC50 in data set [2] below 5.00.

Regarding `COc1ccc(CCc2c(-c3ccccc3)[nH]c3ccc(CC(=O)O)cc23)cc1`, the bioavailability came to 78% in data set [5] and 73% in [6]. Moreover, the clearance in data set [7] was 3 mL/min/kg. Moreover, the half-life in data set [8] was 3.8 h. In data set [9], this molecule gave a negative logarithm of the IC50 (pIC50) of 7.30. Moreover, the pKi in data set [10] was 7.30; in [4], 7.32. Besides, the Ki entry in data set [1] and in [3] was “Not Active” in each case. In [2], this molecule showed a pEC50 of 7.36.

For the molecule `O=C1CSC(=O)N1Cc1ccc2[nH]c(-c3ccccc3)c(CCc3ccccc3)c2c1`, the Ki entry in [1] and in [3] was “Not Active” each time. This molecule also gave a negative logarithm of the EC50 (pEC50) in data set [2] below 5.00.

As for `Cn1c(-c2ccccc2)c(CCc2ccccc2)c2cc(OCC(=O)O)ccc21`, the Ki entry in data set [1] and in data set [3] was “Not Active” throughout. The molecule further had a pEC50 in [2] below 5.00.

For `O=C(O)Cc1ccc2[nH]c(-c3ccccc3)cc2c1`, the “Log EC50” value in [11] is “inactive”. The Ki result in [1] and in [3] was “Not Active” throughout.

With `Cc1c(C)c2c(c(C)c1O)CCC(C)(COc1ccc(CC3SC(=O)NC3=O)cc1)O2` (stereo unspecified) [TROGLITAZONE], the Ki entry in data set [1] and in data set [3] was “Not Active” in each case.

Take `CN(CCOc1ccc(CC2SC(=O)NC2=O)cc1)c1ccccn1` (stereo unspecified) [ROSIGLITAZONE]: the Ki result in [1] is given as “Not Active”.

Regarding `O=C(O)Cc1ccc2[nH]c(-c3ccccc3)c(Cc3ccccc3)c2c1`, in data set [12], the “Log Ki” value is “inactive”. Besides, the Ki result in data set [1] and in data set [3] was “Not Active” in each case. This molecule had a pEC50 in data set [2] below 5.00.

As to `Cn1c(-c2ccccc2)c(CCc2ccccc2)c2cc(CC(=O)O)ccc21`, the Ki entry in data set [1] and in data set [3] was “Not Active” each time. Further, the pKi in data set [4] was 6.26. The molecule also showed a pEC50 in [2] of 5.25.

Turning to `CCc1ccc(CCOc2ccc(CC3SC(=O)NC3=O)cc2)nc1` (stereo unspecified) [PIOGLITAZONE], the Ki result in data set [1] and in [3] was “Not Active” each time.

Regarding `CCCc1c(-c2ccccc2)[nH]c2ccc(C(=O)O)cc12`, the Ki result in [1] and in data set [3] was “Not Active” throughout. In [2], this molecule had a negative-log EC50 (pEC50) below 5.00.

In the case of `CCCc1c(-c2ccccc2)[nH]c2ccc(CC(=O)O)cc12`, the Ki result in data set [1] and in data set [3] was “Not Active” each time. Moreover, in data set [2], the negative-log EC50 (pEC50) was 5.15.

With `O=C(O)Cc1ccc2[nH]c(-c3ccccc3)c(-c3ccccc3)c2c1`, the Ki entry in data set [1] and in [3] was “Not Active” each time. Also, in data set [4], the pKi is below 5.00. Further, in data set [2], the pEC50 was below 5.00.
